What is called IC50 is the midpoint of a concentration-inhibition curve. Lower therefore signals higher potency. As a reminder, the IC95 is the concentration at which the effect reaches the 95% level.

The target in one experiment is T1, mutant HIV reverse transcriptase, K103N mutation (Human immunodeficiency virus type 1 group M subtype B, UniProt P04585, K690N).
T1 construct: made in house
Description: Analogous RT inhibition assay, K103N mutant. The class given is biochemical. The conditions noted are these: RT with K103N mutation. As to the method: Analogous assays were conducted substituting mutant HIV strains to determine the […] inhibition of compounds of the present invention against mutant HIV reverse transcriptase. In one strain the reverse transcriptase has the Y181C mutation and in the other strain the reverse transcriptase has the K103N mutation. The mutations were generated with the […] site-directed mutagenesis kit (Stratagene).
`CC(C)CCS(=O)(=O)c1c(C(=O)NCc2nccn2C)[nH]c2ccc(Cl)cc12` [Example 39, 5-Chloro-3-[(3-methylbutyl)sulfonyl]-N-[(1-methyl-1H-imidazol-2-yl)methyl]-1-indole-2-carboxamid-indole-2-carboxamide]: the IC50 is below 2 µM.
Turning to `CC(C)CCS(=O)(=O)c1c(C(=O)NCc2n[nH]c3ccccc23)[nH]c2ccc(Cl)cc12` [Example 40, 5-Chloro-N-(1H-indazol-3-ylmethyl)-3-[(3-methylbutyl)sulfonyl]-1H-indole-2-carboxamide], the half-inhibitory concentration (IC50) is below 2 µM.

In another experiment the test system is acute HIV infection of T-lymphoid cells. Description: Assay for inhibition of HIV replication (spread assay). The experiment is classed as cell-based. The conditions noted are these: Human immunodeficiency virus 1, T-lymphoid, read-out: IC95, inhibition of HIV replication in spread assay. Here is the method:
An assay for the inhibition of acute HIV infection of T-lymphoid cells (alternatively referred to herein as the “spread assay”) was conducted in accordance with Vacca, J. P. et al., Proc. Natl. Acad. Sci. USA 1994, 91: 4096.
For `CCOC(=O)c1[nH]c2ccc(Cl)cc2c1SCC1CCCCC1` [Example 11, ethyl 5-chloro-3-[(cyclohexylmethyl)thio]-1H-indole-2-carboxylate], the concentration for an effect of 95% (IC95) is at most 10 µM.
Turning to `CCOC(=O)c1[nH]c2ccc(Cl)cc2c1S(=O)(=O)CC1CCCCC1` [Example 22, ethyl 5-chloro-3-[(cyclohexylmethyl)sulfonyl]-1H-indole-2-carboxylate], the concentration for an effect of 95% (IC95) was at most 10 µM.
As to `NC(=O)c1[nH]c2ccc(Cl)cc2c1S(=O)(=O)CC1CCCCC1` [Example 33, 5-chloro-3-[(cyclohexylmethyl)sulfonyl]-1H-indole-2-carboxamide], the concentration for an effect of 95% (IC95) was at most 10 µM.

Still in this experiment, the particulars now being: Human immunodeficiency virus 1; T-lymphoid cells; tested up to 10 micromolar; read-out: IC95, inhibition of HIV replication in spread assay.
For `CCOC(=O)c1[nH]c2ccc(Cl)cc2c1SCC1CCC1` [Example 1, Ethyl 5-chloro-3-(cyclobutylmethylthio)-1H-indole-2-carboxylate], the IC95 was at most 10 µM.
Turning to `CCOC(=O)c1[nH]c2ccc(Cl)cc2c1SCC(F)(F)F` [Example 2, ethyl 5-chloro-3-[(2,2,2-trifluoroethyl)thio]-1H-indole-2-carboxylate], the IC95 was above 10 µM.
Still for that read-out and setting: next, `CCOC(=O)c1[nH]c2ccc(Cl)cc2c1SCCC(F)(F)F` [Example 3, ethyl 5-chloro-3-[(3,3,3-trifluoropropyl)thio]-1H-indole-2-carboxylate]: at most 10 µM; `CCOC(=O)c1[nH]c2ccc(Cl)cc2c1SCCCC(F)(F)F` [Example 4, ethyl 5-chloro-3-[(4,4,4-trifluorobutyl)thio]-1H-indole-2-carboxylate]: above 10 µM.
`CCOC(=O)c1[nH]c2ccc(Cl)cc2c1SCC(F)(F)C(F)(F)F` [Example 5, ethyl 5-chloro-3-[(2,2,3,3,3-pentafluoropropyl)thio]-1H-indole-2-carboxylate]: the IC95 was at most 10 µM.
Regarding `CCOC(=O)c1[nH]c2ccc(Cl)cc2c1SC1CC1` [Example 6, ethyl 5-chloro-3-(cyclopropylthio)-1H-indole-2-carboxylate], the concentration for an effect of 95% (IC95) is above 10 µM.
Consider `CCOC(=O)c1[nH]c2ccc(Cl)cc2c1SCCC1CC1` [Example 8, ethyl 5-chloro-3-[(2-cyclopropylethyl)thio]-1H-indole-2-carboxylate], for which the IC95 is at most 10 µM.
With `CCOC(=O)c1[nH]c2ccc(Cl)cc2c1SC1CCC1` [Example 9, ethyl 5-chloro-3-(cyclobutylthio)-1H-indole-2-carboxylate], the IC95 is at most 10 µM.
The same measure, in the same setting: next, `CCOC(=O)c1[nH]c2ccc(Cl)cc2c1SC1CCCC1` [Example 10, ethyl 5-chloro-3-(cyclopentylthio)-1H-indole-2-carboxylate]: at most 10 µM; `CCOC(=O)c1[nH]c2ccc(Cl)cc2c1SC1CCCCC1` [Example 12, Ethyl 5-chloro-3-(cyclohexylthio)-1H-indole-2-carboxylate]: at most 10 µM; `CCOC(=O)c1[nH]c2ccc(Cl)cc2c1S(=O)(=O)CC1CCC1` [Example 13, Ethyl 5-chloro-3-(cyclobutylmethylsulfonyl)-1H-indole-2-carboxylate]: at most 10 µM.
For the compound `CCOC(=O)c1[nH]c2ccc(Cl)cc2c1S(=O)(=O)CCC(F)(F)F` [Example 14, ethyl 5-chloro-3-[(3,3,3-trifluoropropyl)sulfonyl]-1H-indole-2-carboxylate], the concentration for an effect of 95% (IC95) was above 10 µM.
On the same count and under the same terms, next, `CCOC(=O)c1[nH]c2ccc(Cl)cc2c1S(=O)(=O)CCCC(F)(F)F` [Example 15, ethyl 5-chloro-3-[(4,4,4,-trifluorobutyl)sulfonyl]-1H-indole-2-carboxylate]: above 10 µM; `CCOC(=O)c1[nH]c2ccc(Cl)cc2c1S(=O)(=O)C1CC1` [Example 16, ethyl 5-chloro-3-(cyclopropylsulfonyl)-1H-indole-2-carboxylate]: above 10 µM.
For `CCOC(=O)c1[nH]c2ccc(Cl)cc2c1S(=O)(=O)CC1CC1` [Example 17, ethyl 5-chloro-3-[(cyclopropylmethyl)sulfonyl]-1H-indole-2-carboxylate], the IC95 is at most 10 µM.
Regarding `CCOC(=O)c1[nH]c2ccc(Cl)cc2c1S(=O)(=O)CCC1CC1` [Example 18, ethyl 5-chloro-3-[(2-cyclopropylethyl)sulfonyl]-1H-indole-2-carboxylate], the IC95 was at most 10 µM.
For the compound `CCOC(=O)c1[nH]c2ccc(Cl)cc2c1S(=O)(=O)C1CCC1` [Example 19, ethyl 5-chloro-3-(cyclobutylsulfonyl)-1H-indole-2-carboxylate], the concentration for an effect of 95% (IC95) is above 10 µM.
For the compound `CCOC(=O)c1[nH]c2ccc(Cl)cc2c1S(=O)(=O)C1CCCC1` [Example 20, ethyl 5-chloro-3-(cyclopentylsulfonyl)-1H-indole-2-carboxylate], the IC95 is above 10 µM.
Regarding `CCOC(=O)c1[nH]c2ccc(Cl)cc2c1S(=O)(=O)C1CCCCC1` [Example 21, ethyl 5-chloro-3-(cyclohexylsulfonyl)-1H-indole-2-carboxylate], the IC95 is above 10 µM.
Still for that read-out and setting: next, `NC(=O)c1[nH]c2ccc(Cl)cc2c1S(=O)(=O)CC1CCC1` [Example 23, 5-Chloro-3-(cyclobutylmethylsulfonyl)-1H-indole-2-carboxamide]: at most 10 µM; `NC(=O)c1[nH]c2ccc(Cl)cc2c1S(=O)(=O)CCC(F)(F)F` [Example 24, 5-chloro-3-[(3,3,3-trifluoropropyl)sulfonyl]-1H-indole-2-carboxamide]: at most 10 µM.
On the same count and under the same terms, next, `NC(=O)c1[nH]c2ccc(Cl)cc2c1S(=O)(=O)CCCC(F)(F)F` [Example 25, 5-chloro-3-[(4,4,4-trifluorobutyl)sulfonyl]-1H-indole-2-carboxamide]: at most 10 µM.
Turning to `NC(=O)c1[nH]c2ccc(Cl)cc2c1S(=O)(=O)C1CC1` [Example 26, 5-chloro-3-(cyclopropylsulfonyl)-1H-indole-2-carboxamide], the IC95 was at most 10 µM.
As for `NC(=O)c1[nH]c2ccc(Cl)cc2c1S(=O)(=O)CC1CC1` [Example 27, 5-chloro-3-[(cyclopropylmethyl)sulfonyl]-1H-indole-2-carboxamide], the concentration for an effect of 95% (IC95) is at most 10 µM.
Regarding `NC(=O)c1[nH]c2ccc(Cl)cc2c1S(=O)(=O)CCC1CC1` [Example 28, 5-chloro-3-[(2-cyclopropylethyl)sulfonyl]-1H-indole-2-carboxamide], the IC95 is at most 10 µM.
Turning to `NC(=O)c1[nH]c2ccc(Cl)cc2c1S(=O)(=O)C1CCC1` [Example 29, 5-chloro-3-(cyclobutylsulfonyl)-1H-indole-2-carboxamide], the concentration for an effect of 95% (IC95) was at most 10 µM.
Still for that read-out and setting: next, `NC(=O)c1[nH]c2ccc(Cl)cc2c1S(=O)(=O)C1CCCC1` [Example 30, 5-chloro-3-(cyclopentylsulfonyl)-1H-indole-2-carboxamide]: at most 10 µM; `NC(=O)c1[nH]c2ccc(Cl)cc2c1S(=O)(=O)C1CCCCC1` [Example 31, 5-chloro-3-(cyclohexylsulfonyl)-1H-indole-2-carboxamide]: at most 10 µM; `NC(=O)c1[nH]c2ccc(Cl)cc2c1S(=O)(=O)C1C=CCCC1` (stereo not drawn) [Example 32, 5-chloro-3-(cyclohex-2-en-1-ylsulfonyl)-1H-indole-2-carboxamide]: at most 10 µM.
On the same count and under the same terms, next, `CC(CC(F)(F)F)S(=O)(=O)c1c(C(N)=O)[nH]c2ccc(Cl)cc12` (stereo not drawn) [Example 34, 5-chloro-3-[(3,3,3-trifluoro-1-methylpropyl)sulfonyl]-1H-indole-2-carboxamide]: at most 10 µM; `NC(=O)c1[nH]c2ccc(Cl)cc2c1S(=O)(=O)CC1CC(F)(F)C1(F)F` (stereo not drawn) [Example 37]: at most 10 µM.
Still for that read-out and setting: next, `NC(=O)c1[nH]c2ccc(Cl)cc2c1S(=O)(=O)CC(F)(F)C(F)F` [Example 38, 5-chloro-3-[(2,2,3,3-tetrafluoropropyl)sulfonyl]-1H-indole-2-carboxamide]: above 10 µM; `CC(C)CCS(=O)(=O)c1c(C(=O)NCc2nccn2C)[nH]c2ccc(Cl)cc12` [Example 39, 5-Chloro-3-[(3-methylbutyl)sulfonyl]-N-[(1-methyl-1H-imidazol-2-yl)methyl]-1-indole-2-carboxamid-indole-2-carboxamide]: at most 10 µM.
On to `CC(C)CCS(=O)(=O)c1c(C(=O)NCc2n[nH]c3ccccc23)[nH]c2ccc(Cl)cc12` [Example 40, 5-Chloro-N-(1H-indazol-3-ylmethyl)-3-[(3-methylbutyl)sulfonyl]-1H-indole-2-carboxamide], for which the IC95 is at most 10 µM.

The record behind these values is patent publication US20090131494A1, “Non-Nucleoside Reverse Transcriptase Inhibitors” (priority 2005, published 2009).
